Here are results for nine compounds from BindingDB's records for doi:10.7270/Q2ZC819K (Burnham Center For Chemical Genomics, 2009).

Structures are written as SMILES.

The target in this assay is Polyadenylate-binding protein 1 (Homo sapiens, UniProt P11940). The experiment in a line: PABP poly(A) RNA binding inhibitors, primary screen, biochemical, fluorescence polarization, uHTS (AID 2014). In general terms: Polarisation of emitted light reports the rotation of a fluorescent probe.
Polyadenylate-binding protein 1, sequence (P11940 whole entry): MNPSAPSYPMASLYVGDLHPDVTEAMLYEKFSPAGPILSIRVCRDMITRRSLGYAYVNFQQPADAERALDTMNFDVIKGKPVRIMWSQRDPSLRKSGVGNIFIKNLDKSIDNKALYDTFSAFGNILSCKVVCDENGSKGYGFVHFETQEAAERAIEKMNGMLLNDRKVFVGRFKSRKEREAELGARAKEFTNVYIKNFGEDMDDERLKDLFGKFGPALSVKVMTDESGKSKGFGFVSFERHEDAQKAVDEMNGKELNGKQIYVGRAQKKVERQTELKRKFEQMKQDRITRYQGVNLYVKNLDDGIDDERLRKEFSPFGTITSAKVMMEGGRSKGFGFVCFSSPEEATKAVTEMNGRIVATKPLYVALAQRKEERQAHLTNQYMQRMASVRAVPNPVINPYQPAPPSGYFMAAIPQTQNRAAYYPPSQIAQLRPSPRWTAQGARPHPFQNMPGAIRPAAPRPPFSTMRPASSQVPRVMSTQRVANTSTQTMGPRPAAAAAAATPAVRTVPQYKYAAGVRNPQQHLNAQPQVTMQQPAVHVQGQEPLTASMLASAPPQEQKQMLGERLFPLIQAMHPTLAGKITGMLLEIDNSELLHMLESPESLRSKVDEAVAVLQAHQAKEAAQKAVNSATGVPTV
Take `COc1ccc2c(c1)=C(NNC(=O)Cc1cccs1)C(=O)N=2`: the IC50 is 31 µM. Compound `COc1ccc(CN=Nc2nc(O)c(CC(=O)O)s2)cc1OCc1ccc(Cl)cc1Cl` [[2-({3-[(2,4-dichlorobenzyl)oxy]-4-methoxybenzylidene}hydrazono)-4-oxo-1,3-thiazolidin-5-yl]acetic acid] registered a half-inhibitory concentration (IC50) of 64.3 µM. `CCn1c(=NC(=O)c2ccc(-n3c(O)ccc3O)cc2)sc2c(OC)ccc(OC)c21` [4-[2,5-bis(oxidanylidene)pyrrolidin-1-yl]-N-(3-ethyl-4,7-dimethoxy-1,3-benzothiazol-2-ylidene)benzamide] displayed an IC50 of 100 µM. Take `CC1(C)Oc2ccc3ccc(=O)oc3c2C(CN=O)=C1Cl` [9-chloro-2-keto-8,8-dimethyl-pyrano[2,3-f]chromene-10-carbaldehyde oxime]: the IC50 came to 10.3 µM. Take `CC[N+](C)(CC)CCCC(N=O)C(O)(c1ccccc1)c1ccccc1` (centres undefined) [diethyl-(5-hydroxy-4-hydroxyimino-5,5-diphenylpentyl)-methylammonium;iodide]: the IC50 came out at 5.57 µM. With `COc1cc(C)cc(C(=O)O)c1C1C(=O)C(=O)c2c(O)cccc2C1=O` (centres undefined) [MLS000877007] the figure was 5.41 µM; with `O=C1N=c2ccccc2=C1NNC(=O)c1cc(-c2cccs2)n[nH]1` [N'-(2-oxoindol-3-yl)-5-thiophen-2-yl-1H-pyrazole-3-carbohydrazide], 28.8 µM. `CC1=NC(=O)NC(c2ccco2)C1C(=O)OC(C)C` (centres undefined) [SMR000120838]: the 50% inhibitory concentration (IC50) was determined as 42.8 µM.

Take `O=C(O)c1ccc(N=NCc2cc3c(cc2[N+](=O)[O-])OCO3)cc1`: the IC50 was 48.8 µM.

In general, IC50 refers to the concentration that inhibits the measured activity by half. A lower IC50 goes with higher potency.
